From paper PMC12362111, “Cu/Zn-superoxide dismutase naturally fused with a β-propeller lactonase in Deinococcus radiodurans” (The Journal of Biological Chemistry, 2025)

B1: six-bladed β-propeller domain of DrSOD (DrSOD^β-pro) (domain or fragment, Deinococcus radiodurans, UniProt Q9RYV4 185-462, looked up)
chain: LSVRDYALPGPVDHPEGVAYDAKKGLIYTGSAQNGTIYAINAQSGAVTKFQEGGAYGRQVALGLKVDPQGRLWIAGGAQGTVSILTPDGMTLAVLETPKSPRPYINDLVLAPDGNFYVTDSSRPVIFRVDKALKLTAWLDLAGTPIKYGPGVNLNGIAATPDGKYLLAVQLNTGELWRIDLKTKAVKKVMDGLVNGDGLLLDGRTLYVARNKDQVVAKVSLSADYGSGQLVAQEPLNGLRFPATLAKVGNDLVVTQAQLDRIGGTPETPFKLTRFAKF
notes: β-propeller (SGL) domain of DrSOD (DRA0202), Deinococcus radiodurans, UniProt Q9RYV4, residues Leu185-Phe462; Eluted as a mixture of monomer and dimer; source: E. coli BL21(DE3), purified (cOmplete His-Tag column, HRV3C, gel filtration); not shown: His6, N-terminal, cleaved

How the values were obtained:
DrSOD^β-pro = target: T1, DrSOD^β-pro (Deinococcus radiodurans, UniProt Q9RYV4); assay: pH-indicator (p-nitrophenol, […] nm) lactonase assay; format: biochemical; settings: pH 7.0, 20 mM CaCl2; 2 mM substrate
T1 construct: gene DR_A0202; C-terminal beta-propeller domain (Leu185-Phe462), N-terminal 6xHis removed with HRV3C, E. coli BL21(DE3), monomer and dimer

[1] = target: the molecule itself; assay: SEC-MALS; 25 μM protein loaded on a gel filtration column (LW-803, SHODEX); MN buffer (50 mM MOPS, 100 mM NaCl, pH 7.0) for the holo forms, MN buffer with 5 mM EDTA for the metal-free apo state; monomer against dimer

Molecule	pH-indicator (p-nitrophenol, 405 nm) lactonase assay (DrSOD^β-pro)	stoichiometry N [1]
O=C1Cc2ccccc2O1 [2-coumaranone]	lactonase activity of DrSOD toward 2-coumaranone was attributed to DrSOD^β-pro but not DrSOD^SOD	–
B1	–	2
